This series can be described thus: Human HepG2 cell viability assay in 384 well format. Format: toxicity, cell-based. More on the design: dose 125 nL, time 70.5 hour; cytotoxicity at 70.5 h: concentration not given beside the values. The conditions noted are these: HepG2 cells, read-out: Inhibition.

In the case of `CCNc1nnc(CCn2nc(C)c(Br)c2C)s1`, the cytotoxicity at 70.5 h was -7.99%. The same measure for `Cc1ccsc1CN1CC[C@H]2O[C@H](C(=O)N3CCCO3)CC[C@H]21`: -8.24%; for `O=C(c1cccc(F)c1)N1C[C@H]2CCCC(OCc3cccnc3)[C@H]2C1` (stereo partly drawn): -7.83%. As to `Cc1noc(C)c1CN1CC[C@H]2OCC[C@@H](C(=O)N3CCCO3)[C@H]2C1`, the cytotoxicity at 70.5 h is -2.47%. As for `CNC(=O)c1cc2c(nc1NCC1CC1)CCNCC2`, the cytotoxicity at 70.5 h was 4.29%. The same measure for `CCN(C)c1ncnc2c1CCN(C(=O)N1CCOCC1)CC2`: 6.06%.

With `COc1ccc(S(=O)(=O)N2CCn3cnc(COCC4CC4)c3C2)cc1`, the cytotoxicity at 70.5 h turned out to be 10.3%. With `CN1C(=O)C(c2cccnc2)CC12CCN(C(=O)c1ccc[nH]1)CC2` (stereo not drawn), the cytotoxicity at 70.5 h stood at 15.4%. Turning to `CCOCc1ncn2c1CN(S(=O)(=O)c1ccc(OC)cc1)CC2`, the cytotoxicity at 70.5 h was -9.1%. With `COCc1ncn2c1CN(S(=O)(=O)c1ccc(C)cc1)CC2` the figure was -0.994%; with `CCOCc1ncn2c1CN(S(=O)(=O)c1ccc(C)cc1)CC2`, 35.9%. In the case of `Cc1cccc(CO[C@@H]2C[C@H]3CN(C(=O)c4cnccn4)CCN3C2)n1`, the cytotoxicity at 70.5 h is -8.15%. With `CC(C)(C)C(=O)N1C[C@@H]2COC[C@]2(c2nnc(C3CC3)o2)C1` the figure was -8.33%; with `Cc1cnc(CNC(=O)[C@@H]2CC[C@@H]3[C@@H](CCN3Cc3ccco3)O2)cn1`, -11.9%; with `Cc1cc(C(=O)N2C[C@@H]3COC[C@]3(c3nnc(C)o3)C2)on1`, -11.2%. With `O=C(Nc1ccccc1)C1CN(Cc2cccs2)CC12CCOCC2` (stereo not drawn) the figure was -6.1%; with `Cc1ccc(C(=O)N2CC[C@H]3O[C@@H](c4noc(C)n4)C[C@H]3C2)o1`, -8.48%. In the case of `Cc1nc([C@H]2C[C@H]3CN(C(=O)c4ccoc4C)CC[C@@H]3O2)no1`, the cytotoxicity at 70.5 h was -7.31%. Take `Cc1ccc(C(=O)N2CCc3ncnc(C)c3CC2)cc1F`: the cytotoxicity at 70.5 h was 6.96%. With `Cc1ccc(N2CCCc3sc(C(=O)NCc4ccc(C)o4)nc32)nn1` the figure was -6.21%. With `Cc1ncnc2c1CCN(C(=O)c1cccc(F)c1)CC2` the figure was -5.99%; with `Cc1noc(C)c1CN1CC2(CCN(C(=O)c3ccoc3C)C2)CC1=O` (stereo not drawn), -6.54%. With `O=C(c1ccccc1)N1CCC2(CC1)CC(Oc1ccccc1)CO2` (stereo not drawn), the cytotoxicity at 70.5 h was -11.5%.

As to `Cc1ncnc2c1CCN(C(=O)c1ccnnc1)CC2`, the cytotoxicity at 70.5 h is -2.5%.

With `Cn1nnc2c1C(COCC1CC1)CN(C(=O)Cc1ccccn1)C2` (stereo not drawn), the cytotoxicity at 70.5 h was -2.19%. Consider `Fc1cnc(N2CCCC3(CCN(c4ncccn4)C3)C2)nc1` (stereo not drawn), for which the cytotoxicity at 70.5 h turned out to be 13.7%. The same measure for `CN(c1ccccc1C(=O)O)S(=O)(=O)c1cccc2cccnc12`: -6.45%. For the compound `Cc1cc(C(F)(F)F)nn1CCCNC(=O)C1CCCC1`, the cytotoxicity at 70.5 h was -1.45%. The same measure for `CN1CCN(C(=O)Cn2nc(C(F)(F)F)c(Br)c2C2CC2)CC1`: -10.9%; for `O=C(c1ccc(Cn2cc(Br)cn2)cc1)N1CCOCC1`: -7.67%. With `CN1CCN(C(=O)c2ccc(Cn3cc(Br)cn3)cc2)CC1` the figure was -5.22%.

On to `CCCN1CCN(C(=O)c2ccc(Cn3cc(Br)cn3)cc2)CC1`, for which the cytotoxicity at 70.5 h is -7.06%.

As to `CCOCCCNC(=O)c1nn(CC)cc1Br`, the cytotoxicity at 70.5 h came to 25.1%.

For the compound `O=C(c1ccn(COc2ccc(F)cc2)n1)N1CCCC1`, the cytotoxicity at 70.5 h was -7.86%.

Consider `CC(C(=O)Nc1ccccn1)n1ccc(C(F)(F)F)n1` (stereo not drawn), for which the cytotoxicity at 70.5 h is -15.3%. The same measure for `Cc1cccc(NC(=O)C(C)Oc2ccc3c(c2)OCO3)n1` (stereo not drawn): -3.5%; for `Cc1nn(CC(=O)N2CCN(c3ccc(F)cc3)CC2)c(C)c1Cl`: 26.3%; for `COc1ccc(N2CCN(C(=O)Cn3nc(C)c(Cl)c3C)CC2)cc1`: 4.1%. The same measure for `CCS(=O)(=O)Nc1ccc2oc(C)c(C(C)=O)c2c1`: 28.3%; for `CC/N=c1/c(NC(=O)NCCOC)c(O)oc2ccccc12`: 30.4%.

On to `CC/N=c1/c(NC(=O)C2CC2)c(O)oc2ccccc12`, for which the cytotoxicity at 70.5 h came out at 35.8%. With `CCCN(c1ccccc1C(=O)O)S(=O)(=O)c1cccc2cccnc12` the figure was -10.2%; with `Cc1nn(C)cc1CN(C)C(=O)c1cccnc1`, 8.22%; with `Cc1nn(C)cc1CN(C)C(=O)c1cnccn1`, 1.11%.

In the case of `CCn1nccc1CNC(=O)C1CCC1`, the cytotoxicity at 70.5 h is -2.95%. With `CCn1nccc1CNC(=O)C1CCCCC1` the figure was -0.635%; with `CCn1nccc1CNC(=O)C1CCCO1` (stereo not drawn), 0.767%; with `CCn1cc(Cl)c(C(=O)NCCOC)n1`, -0.484%.

For the compound `CC(C(=O)N1CCN(C)CC1)n1cc(Br)cn1` (stereo not drawn), the cytotoxicity at 70.5 h was -1.37%.

Consider `CCCN1CCN(C(=O)CCn2nc(C(F)(F)F)c(Br)c2C)CC1`, for which the cytotoxicity at 70.5 h is -10.4%.

For the compound `Cc1cnc(NC(=O)C(C)Oc2ccc3c(c2)OCO3)s1` (stereo not drawn), the cytotoxicity at 70.5 h was -7.91%.

Take `Cc1ccc(CNC(=O)c2ccc(F)cc2)o1`: the cytotoxicity at 70.5 h is -8.9%.

As to `O=C(c1n[nH]cc1Br)N1CCOCC1`, the cytotoxicity at 70.5 h is -4.31%. With `CC(Cn1cc(Br)cn1)C(=O)Nc1ccc(Cl)cn1` (stereo not drawn) the figure was 4.53%; with `CCn1cc(Cl)c(C(=O)NCc2cnn(C)c2)n1`, -0.0278%; with `CN(C)C(=O)c1ccn(COc2ccccc2Cl)n1`, -2.41%. The same measure for `Cc1ccc(F)cc1NC(=O)c1[nH]ncc1Br`: -7.98%; for `CCn1cc(Br)c(C(=O)NCc2ccccc2)n1`: 1.89%; for `CCn1nc(C)cc1NC(=O)CCn1nc(C)c(Br)c1C`: 10.2%. For `Cc1ccc(NC(=O)CCc2cnn(C)c2)cc1F`, the cytotoxicity at 70.5 h was -8.37%. As to `CCOc1ccc(NC(C)=O)cc1S(=O)(=O)Nc1nccs1`, the cytotoxicity at 70.5 h amounted to 22.7%. With `CCOc1ccc(NC(C)=O)cc1S(=O)(=O)Nc1cc(C)on1` the figure was -6.08%. Turning to `Cc1cc(C)n(C2=NC(NCCCO)c3c(sc4c3CCCC4)N2)n1` (stereo not drawn), the cytotoxicity at 70.5 h is -11.9%. The same measure for `COc1cccc(NC(=O)C(C)Cn2cc(Cl)cn2)c1` (stereo not drawn): -7.91%. Take `Nc1nnnn1NCc1cccc(Cl)c1Cl`: the cytotoxicity at 70.5 h is 21.9%. Take `CCC1(CC)C(=O)NC(=O)N=C1Nc1ccc(C)cc1`: the cytotoxicity at 70.5 h is -10.3%. For `CCn1cc(NS(=O)(=O)c2ccc(Br)s2)c(C(N)=O)n1`, the cytotoxicity at 70.5 h was 21.8%. Consider `CC1CCC(NC(=O)c2nn(C)cc2Br)CC1` (stereo not drawn), for which the cytotoxicity at 70.5 h was -7.64%.

As for `CCn1cc(S(=O)(=O)N2CCN(S(=O)(=O)c3ccc(Br)s3)CC2)c(C)n1`, the cytotoxicity at 70.5 h was -9.33%.

For `CS(=O)(=O)Nc1ccn(Cc2cccc(Cl)c2)n1`, the cytotoxicity at 70.5 h is -4.43%. Consider `Cc1nn(CCCNC(=O)C2CCN(S(C)(=O)=O)CC2)c(Cl)c1Cl`, for which the cytotoxicity at 70.5 h was -7.28%.

For the compound `c1ccc(-c2ncc3c(n2)C2(CCN(CC4CC4)C2)COC3)cc1` (stereo not drawn), the cytotoxicity at 70.5 h was 15.2%. The same measure for `Cc1ccc(O[C@@H]2C[C@H]3CN(C(=O)c4cnccn4)CCN3C2)cc1`: -4.43%. For the compound `O=C(C1=CC2(CCN(CCO)CC2)c2ccccc21)N1CCCC1`, the cytotoxicity at 70.5 h is -4.5%. For the compound `Cc1ccc(CN2CC(C(=O)Nc3ccccc3)C3(CCOCC3)C2)o1` (stereo not drawn), the cytotoxicity at 70.5 h was -12.3%. With `Cn1cc(CN2CC(C(=O)Nc3ccccc3)C3(CCOCC3)C2)cn1` (stereo not drawn) the figure was -9.91%.

For `O=C(c1ccsc1)N1CCc2c(COCC3CC3)cncc2C1`, the cytotoxicity at 70.5 h was found to be 18.9%. Consider `CCOCC(=O)N1Cc2nnn(C)c2C(COCc2ccccn2)C1` (stereo not drawn), for which the cytotoxicity at 70.5 h came out at 9.65%.

Turning to `COCC1CN(S(=O)(=O)N(C)C)Cc2cnn(CC3CCCC3)c21` (stereo not drawn), the cytotoxicity at 70.5 h is -5.7%.

As to `Cc1noc(C)c1CN1CCC2(COCc3cnc(N(C)C)nc32)C1` (stereo not drawn), the cytotoxicity at 70.5 h is -3.18%. For the compound `CCOCC1CN(Cc2csc(C)n2)Cc2nccn2C1` (stereo not drawn), the cytotoxicity at 70.5 h came to 3.86%. For the compound `COc1cccc(CN2CCC3(COCc4cnc(N(C)C)nc43)C2)c1` (stereo not drawn), the cytotoxicity at 70.5 h worked out at 1.22%. The same measure for `Cc1cccc(CN2CC[C@H]3CO[C@H](CNC(=O)N(C)C)[C@H]3C2)c1`: -3.19%; for `CN(C)C(=O)N1CCC(c2nc3ccc(N4CCCC4)cn3n2)CC1`: -4.23%; for `Cc1nnc(N2C[C@H](OCC3CCCC3)[C@H]3OCCC[C@H]32)s1`: -5.71%. The same measure for `COc1ccc(CN2CC[C@H]3[C@H](CO[C@H]3CNC(=O)N(C)C)C2)cc1`: -0.91%; for `Cc1ccc(CN2CCOC3(COCCN(S(C)(=O)=O)C3)C2)s1` (stereo not drawn): -6.35%; for `Cc1nnc(N2C[C@@H](OCC3CCCC3)[C@H]3OCCC[C@H]32)s1`: -5.21%. On to `Cc1ccc(N2CCCc3sc(C(=O)NCCC#N)nc32)nn1`, for which the cytotoxicity at 70.5 h was -4.91%. With `CN(C)C(=O)NCc1cc(=O)n2c(n1)CN(Cc1ccoc1)CCC2` the figure was 16.4%.

In the case of `CC(C)N(C)Cc1n[nH]c2c1CCN(C(=O)c1ccc[nH]1)C2`, the cytotoxicity at 70.5 h was 21%. With `CCN(C)c1ncnc2c1CCN(C(=O)c1ccccn1)CC2` the figure was 17.4%; with `O=C(NCc1ccco1)[C@H]1CC[C@@H]2[C@@H](CCN2Cc2cccnc2)O1`, -5.95%. `CS(=O)(=O)N1CCOCC2(CN(Cc3ccccn3)CCO2)C1` (stereo not drawn): the cytotoxicity at 70.5 h is -5.98%.

On to `Cc1nc(CN2Cc3nccn3CC(CN3CCCC3)C2)cs1` (stereo not drawn), for which the cytotoxicity at 70.5 h was -3.82%. With `Cc1nc(CN2Cc3nccn3CC(CN3CCOCC3)C2)cs1` (stereo not drawn), the cytotoxicity at 70.5 h is -2.85%. As for `Cc1nnc(N2CCO[C@H]3[C@@H](OCc4ccccn4)CC[C@@H]32)s1`, the cytotoxicity at 70.5 h is -2.28%. The same measure for `Cc1cnc(NS(=O)(=O)c2ccccc2)s1`: -10%.

The record behind these values is ChEMBL document CHEMBL3507680, “University of Dundee, Gates Library screen for HepG2 cell viability”.
